# Patent publication US9365583B2, “Substituted pyrazoles and uses thereof” (Genentech, Inc., priority 2013, dated 2016)
# Molecular target: T1, N-terminally GST-tagged DLK (catalytic domain amino acid 1-520) (Homo sapiens, UniProt Q12852)
# T1 construct: N-terminally GST-tagged DLK (catalytic domain amino acid 1-520); purchased Carna Bioscience
# T1 sequence (Q12852 1-520): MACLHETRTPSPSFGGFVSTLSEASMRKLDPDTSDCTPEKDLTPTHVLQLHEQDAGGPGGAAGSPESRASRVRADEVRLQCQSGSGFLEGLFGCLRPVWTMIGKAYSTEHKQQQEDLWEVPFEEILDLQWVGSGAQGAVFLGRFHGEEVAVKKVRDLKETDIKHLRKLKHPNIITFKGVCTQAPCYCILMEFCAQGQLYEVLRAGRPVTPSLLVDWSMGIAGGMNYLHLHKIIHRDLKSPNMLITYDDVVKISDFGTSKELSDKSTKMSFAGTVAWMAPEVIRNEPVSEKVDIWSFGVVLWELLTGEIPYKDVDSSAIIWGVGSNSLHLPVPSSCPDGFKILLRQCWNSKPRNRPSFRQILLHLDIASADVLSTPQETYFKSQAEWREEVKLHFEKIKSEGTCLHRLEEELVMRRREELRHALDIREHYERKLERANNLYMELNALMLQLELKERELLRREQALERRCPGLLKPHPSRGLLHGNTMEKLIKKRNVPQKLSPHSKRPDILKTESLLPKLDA
# Test: DLK TR-FRET inhibition assay
# Assay type: biochemical
# Settings: 5 nM GST-DLK, 40 nM HIS-MKK4 K131M substrate, 30 μM ATP, 60 minutes at ambient temperature
# Experimental: DLK TR-FRET inhibition assay: DLK kinase reactions (20 μL) containing 5 nM N-terminally GST-tagged DLK (catalytic domain amino acid 1-520) (Carna Bioscience), 40 nM N-terminally HIS-tagged MKK4 K131M substrate, and 30 μM ATP in kinase reaction buffer (50 mM HEPES, pH 7.5, 0.01% Triton X-100, 0.01% Bovine γ-Globulins, 2 mM DTT, 10 mM MgCl2 and 1 mM EGTA), and testing compound 1:3 serial diluted starting at 20 uM were incubated at ambient temperature for 60 minutes in 384 well OptiPlate (Perkin Elmer). To quench kinase reactions and detect phosphorylated MKK4, 15 μL of TR-FRET antibody mixture containing 2 nM anti-phosphorylated MKK4 labeled with Europium cryptate (Cisbio) and 23 nM anti-HIS labeled with D2 (Cisbio) in detection buffer (25 mM Tris pH 7.5, 100 mM NaCl, 100 mM EDTA, 0.01% Tween-20, and 200 mM KF) was added to the reaction mixture. The detection mixture was incubated for 3 hours at ambient temperature and the TR-FRET was detected with an EnVision multilabel plate reader (Perkin-Elmer) using the LANCE/DELFIA Dual Enh label from Perkin-Elmer (excitation filter: UV2 (TRF) 320 and emission filters: APC 665 and Europium 615).
row,Ki,SMILES
1,1.5 nM,"CC(C)n1nc(-c2cnc(N)c(OC(F)F)c2)cc1[C@H]1[C@@H]2C[C@@H](NCC(F)F)C[C@@H]21 [compound 255, 5-(5-((1R,3s,5S,6r)-3-((2,2-difluoroethyl)amino)bicyclo[3.1.0]hexan-6-yl)-1-isopropyl-1H-pyrazol-3-yl)-3-(difluoromethoxy) pyridin-2-amine]"
2,4.2 nM,"CC(C)n1nc(-c2cnc(N)c(OC(F)F)c2)cc1C1[C@H]2CC(N3CCOCC(F)C3)C[C@@H]12 (single isomer, unassigned) [compound 172]"
3,2 nM,"CC(C)n1nc(-c2cnc(N)c(OC(F)F)c2)cc1[C@H]1[C@@H]2C[C@@H](N3CCN(C)C[C@@H]3C)C[C@@H]21 [compound 241, 3-(difluoromethoxy)-5-(5-((1R,3s,5S,6S)-3-((S)-2,4-dimethyl-piperazin-1-yl)bicyclo[3.1.0]hexan-6-yl)-1-isopropyl-1H-pyrazol-3-yl)pyridin-2-amine]"
4,15.8 nM,"CC(C)n1nc(-c2cnc(N)c(OC(F)F)c2)cc1[C@H]1[C@@H]2C[C@@H](Cl)C[C@@H]21 [compound 236, 5-(5-((1R,3s,5S,6r)-3-chlorobicyclo [3.1.0]hexan-6-yl)-1-isopropyl-1H-pyrazol-3-yl)-3-(difluoro-methoxy)pyridin-2-amine]"
5,4.4 nM,"CC(C)n1nc(-c2cnc(N)c(OC(F)F)c2)cc1[C@H]1[C@@H]2C[C@@H](N3CC[C@H](F)C3)C[C@@H]21 [compound 289, 3-(difluoromethoxy)-5-(5-((1R,3s,5S,6S)-3-((S)-3-fluoropyrrolidin-1-yl)bicyclo[3.1.0]hexan-6-yl)-1-isopropyl-1H-pyrazol-3-yl) pyridin-2-amine]"
6,1.3 nM,"CC(C)n1nc(-c2cnc(N)c(C(F)(F)F)c2)cc1[C@H]1[C@@H]2CC3(C[C@@H]21)CN(C)CCO3 (single isomer, unassigned) [compound 197]"
7,6.7 nM,"COCC1(F)C[C@@H]2[C@H](C1)[C@H]2c1cc(-c2cnc(N)c(C(F)(F)F)c2)nn1C(C)C (stereo partly drawn) [compound 166, 5-(5-((1R,5S,6r)-3-fluoro-3-(methoxymethyl)bicyclo[3.1.0]hexan-6-yl)-1-isopropyl-1H-pyrazol-3-yl)-3-(trifluoromethyl)pyridin-2-amine]"
8,4.3 nM,"CC(C)n1nc(-c2cnc(N)c(C(F)(F)F)c2)cc1[C@H]1[C@@H]2C[C@H](N3CCN(C)C4(COC4)C3)C[C@@H]21 [compound 179, 5-(1-isopropyl-5-((1R,3r,5S,6r)-3-(5-methyl-2-oxa-5,8-diazaspiro [3.5]nonan-8-yl)bicyclo[3.1.0]hexan-6-yl)-1H-pyrazol-3-yl)-3-(trifluoromethyl)pyridin-2-amine]"

# More lines, now with the values behind:
row,SMILES,Ki
1,"CC(C)n1nc(-c2cnc3cnn([C@H](C)c4ccccn4)c3c2)cc1[C@H]1[C@@H]2C[C@@H](N3CCOCC3)C[C@@H]21 [compound 31, 4-((1R,3S,5S,6r)-6-(1-isopropyl-3-(1-((R)-1-(pyridin-2-yl)ethyl)-1H-pyrazolo[4,3-b]pyridin-6-yl)-1H-pyrazol-5-yl)bicyclo[3.1.0]hexan-3-yl)morpholine]",79.4 nM
2,"CC(C)n1nc(-c2cnc(N)c(OC(F)F)c2)cc1[C@H]1[C@@H]2C[C@H](N3CCOC[C@H]3C)C[C@@H]21 [compound 81, 3-(difluoromethoxy)-5-(1-isopropyl-5-((1R,3r,5S,6R)-3-((R)-3-methylmorpholino)bicyclo[3.1.0]hexan-6-yl)-1H-pyrazol-3-yl) pyridin-2-amine]",1.43 nM
3,"CC(C)n1nc(-c2cnc(N)c(C(F)(F)F)c2)cc1[C@H]1[C@@H]2C[C@H](N3CC(F)(F)C3)C[C@@H]21 [compound 54, 5-(5-((1R,3r,5S,6r)-3-(3,3-difluoro-azetidin-1-yl)bicyclo[3.1.0]hexan-6-yl)-1-isopropyl-1H-pyrazol-3-yl)-3-(trifluoromethyl) pyridin-2-amine]",7.68 nM
4,"CC(C)n1nc(-c2cnc(N)c(OC(F)(F)F)c2)cc1[C@H]1[C@@H]2C[C@@H](N3CC4(COC4)C3)C[C@@H]21 [compound 58, 5-(5-((1R,3s,5S,6r)-3-(2-oxa-6-azaspiro[3.3]heptan-6-yl)bicyclo [3.1.0]hexan-6-yl)-1-isopropyl-1H-pyrazol-3-yl)-3-(trifluoromethoxy)pyridin-2-amine]",1.86 nM
5,"COC1CN([C@@H]2C[C@@H]3[C@H](C2)[C@H]3c2cc(-c3cnc(N)c(OC(F)F)c3)nn2CC2CC2)C1 [compound 155, 5-(1-(cyclopropylmethyl)-5-((1R,3s,5S,6r)-3-(3-methoxyazetidin-1-yl)bicyclo[3.1.0]hexan-6-yl)-1H-pyrazol-3-yl)-3-(difluoromethoxy)pyridin-2-amine]",3.3 nM
6,"CC(C)n1nc(-c2cnc(N)c(C(F)(F)F)c2)cc1[C@H]1[C@@H]2C[C@@]3(CCN3C3COC3)C[C@@H]21 [compound 151, 5-(1-isopropyl-5-((1′R,2r,5′S,6′r)-1-(oxetan-3-yl)spiro[azetidine-2,3′-bicyclo[3.1.0]hexan]-6′-yl)-1H-pyrazol-3-yl)-3-(trifluoromethyl) pyridin-2-amine]",9 nM
7,"CC(C)n1nc(-c2cnc(N)c(OC(F)F)c2)cc1[C@H]1[C@@H]2C[C@@H](N3CCN4CCCC4C3)C[C@@H]21 (stereo partly drawn) [compound 88, 3-(difluoromethoxy)-5-(5-((1R,3s,5S,6r)-3-(hexahydropyrrolo [1,2-a]pyrazin-2(1H)-yl)bicyclo [3.1.0]hexan-6-yl)-1-isopropyl-1H-pyrazol-3-yl)pyridin-2-amine]",1.4 nM
8,"CC(C)n1nc(-c2cnc(N)c(OC(F)F)c2)cc1[C@H]1[C@@H]2C[C@H](N3CCOC[C@@H]3C)C[C@@H]21 [compound 80, 3-(difluoromethoxy)-5-(1-isopropyl-5-((1R,3r,5S,6S)-3-((S)-3-methylmorpholino)bicyclo[3.1.0]hexan-6-yl)-1H-pyrazol-3-yl) pyridin-2-amine]",0.6 nM
9,"CC(C)n1nc(-c2cnc(N)c(OC(F)F)c2)cc1[C@H]1[C@@H]2C[C@H](O)C[C@@H]21 [compound 4, (1R,3r,5S,6r)-6-(3-(6-amino-5-(difluoromethoxy)pyridin-3-yl)-1-isopropyl-1H-pyrazol-5-yl) bicyclo[3.1.0]hexan-3-ol]",4.51 nM
10,"Nc1ncc(-c2cc([C@H]3[C@@H]4C[C@H](N5CCOCC5)C[C@@H]43)nn2C2CCC2)cc1OC(F)F [compound 132, 5-(1-cyclobutyl-3-((1R,3r,5S,6r)-3-morpholinobicyclo[3.1.0]hexan-6-yl)-1H-pyrazol-5-yl)-3-(difluoromethoxy)pyridin-2-amine]",258 nM
11,"Nc1ncc(-c2cc([C@H]3[C@@H]4C[C@@H](N5CCOCC5)C[C@@H]43)n(CC(F)F)n2)cc1OC(F)F [compound 160, 5-(1-(2,2-difluoroethyl)-5-((1R,3s,5S,6r)-3-morpholinobicyclo [3.1.0]hexan-6-yl)-1H-pyrazol-3-yl)-3-(difluoromethoxy) pyridin-2-amine]",2.4 nM
12,"CC(C)n1nc(-c2cnc(N)c(OC(F)F)c2)cc1[C@@H]1[C@@H]2C[C@@H](O)C[C@@H]21 [compound 123, (1R,3s,5S,6s)-6-(3-(6-amino-5-(difluoromethoxy)pyridin-3-yl)-1-isopropyl-1H-pyrazol-5-yl) bicyclo[3.1.0]hexan-3-ol]",> 321 nM
